Patent publication US20240058315A1, “Pyridine and Pyrazine derivative for the Treatment of CF, COPD, and Bronchiectasis” (NOVARTIS AG, priority 2019, published 2024)

Assays:
[1] = Pharmacokinetics of Compound A (half-life, trough/AUC relation); assay type: in vivo
[2] = molecular target: ΔF508-CFTR (Homo sapiens (Human), UniProt P13569, DEL508-508); assay: CFTR potentiator assays (membrane potential, IonWorks Quattro, Ussing chamber ion transport); assay type: cell-based; settings: CFTR EC50 in 'the data measurements described above'; which of the potentiator assays is not stated
Excerpt: CFTR activity can be quantified by measuring the transmembrane potential. The means for measuring the transmembrane potential in a biological system can employ a number of methods including electrophysiological and optical fluorescence-based membrane potential assays.
The optical membrane potential assay utilises a negatively charged potentiometric dye, such as the FLIPR membrane potential dye (FMP) (see Baxter D F, Kirk M, Garcia A F, Raimondi A, Holmqvist M H, Flint K K, Bojanic D, Distefano P S, Curtis R, Xie Y. ‘A novel membrane potential-sensitive fluorescent dye improves cell-based assays for ion channels.’ J Biomol Screen. 2002 February; 7(1):79-85) which when extracellular is bound to a quenching agent.
Upon cellular depolarisation the negatively charged dye redistributes to the intracellular compartment, unbinding from the membrane impermeant quench agent, yielding an increase in fluorescence. This change in fluorescence is proportional to the change in transmembrane potential which can result from the activity of CFTR. The changes in fluorescence can be monitored in real time by an appropriately equipped fluorescence detector such as the FLIPR (fluorometric imaging plate reader) in 96 or 384-well microtitre plates.
Chinese hamster ovary (CHO) cells stably expressing the AF508-CFTR channel were used for membrane potential experiments. Cells were maintained at 37° C. in 5% v/v CO2 at 100% humidity in Modified Eagles medium (MEM) supplemented with 8% v/v foetal calf serum, 100 μg/ml methotrexate and 100 U/ml penicillin/streptomycin. Cells were grown in 225 cm^2 tissue culture flasks. For membrane potential assays cells were seeded into 96 well plates at 40,000 cells per well, allowed to adhere and then maintained at 26° C. for 48 h to facilitate channel insertion.
The membrane potential screening assay utilised a low chloride ion containing extracellular solution (˜5 mM) combined with a double addition protocol. The first addition was of buffer with or without test compound followed 5 minutes later by an addition of forskolin (1-20 μM)—this protocol favours maximum chloride efflux in response to ΔF508-CFTR activation. The ΔF508-CFTR mediated chloride ion efflux leads to a membrane depolarisation which is optically monitored by the FMP dye.
Low chloride extracellular (mM): 120 Na-gluconate, 1.2 CaCl2), 3.3 KH2PO4, 0.8 K2HPO4, 1.2 MgCl2, 10.0 D-glucose, 20.0 HEPES, pH 7.4 with NaOH FMP dye: made up as per manufacturers' instructions in low chloride extracellular solution detailed above, at 10× final concentration, and stored as 1 mL aliquots at −20° C.
CFTR activity can also be quantified electrophysiologically using the whole-cell configuration of the patch clamp technique (Hamill et al Pflugers Archive 1981). This assay directly measures the currents associated with chloride flow through CFTR channels whilst either maintaining or adjusting the transmembrane voltage. This assay can use either single glass micropipettes or parallel planar arrays to measure CFTR activity from native or recombinant cell systems. Currents measured using parallel planar arrays can be quantified using an appropriately equipped instrument such as the IonWorks Quattro (Molecular Devices) or the Qpatch (Sophion). The Quattro system can measure CFTR currents from either a single cell per recording well (HT configuration) or alternatively from a population of 64 cells per well (Population Patch Clamp PPC) (Finkel A, Wittel A, Yang N, Handran S, Hughes J, Costantin J. ‘Population patch clamp improves data consistency and success rates in the measurement of ionic currents.’ J Biomol Screen. 2006 August; 11(5):488-96).
Chinese hamster ovary (CHO) cells stably expressing the ΔF508-CFTR channel were used for IonWorks Quattro experiments. […]

[3] = tested on: OAT1/3; assay: in vitro inhibition of OAT1/3; assay type: in vitro ADME
[4] = molecular target: UGT1A1 (Homo sapiens (Human), UniProt P22309); assay: in vitro inhibition of UGT1A1; assay type: in vitro ADME
[5] = tested on: Pseudomonas aeruginosa Biotype 2 - dry; assay: Phase II study in COPD patients: sputum microbiology, Pseudomonas aeruginosa Biotype 2 - dry; assay type: in vivo
Procedure: Patients were randomized and stratified by smoking status (former vs current smokers). The double-blind placebo-controlled treatment period was 28 days (Day 1 to Day 28) and included visits on Days 1, 14 and 28. Eligible patients were randomized in a 2:1 ratio to receive 300 mg b.i.d. of Compound A or matching placebo for 28 consecutive days. Of note, the first 4 patients enrolled randomized in this study received 450 mg b.i.d. of Compound A or placebo, prior to an amendment reducing the dose and thereafter the dose was reduced to 300 mg b.i.d. of Compound A. The single-blind placebo-controlled follow-up period was 28 days. The follow-up period included a visit on Day 29 for key primary and secondary objective efficacy assessments, weekly follow-up contact via telephone, and an End-of-Study (EOS) visit on Day 56.
Spontaneous sputum was collected from patients and used to quantify colony forming units (CFUs) as a potential efficacy marker. The collected sputum samples were cultured for the following specific bacteria: Haemophilus parainfluenza, Haemophilus influenza, Pseudomonas aeruginosa, Moraxella, and Streptococcus pneumonia. In the event of bacterial growth for one or more of the above five pathogens, then the test result was reported, including the quantitative growth. In order to be included in the sputum analysis, a patient must have provided a sufficient sputum sample at baseline and at least one other visit (Day 14, Day 29 or EOS).
A decrease in airway bacterial colonization as detected in the sputum is considered improvement. In Table 4, the frequency (n, %) of patients was reported by treatment with Compound A and type of bacteria. Within each treatment group, the percentage was calculated as number of patients who were colonized with bacteria divided with total number of patients who produced a sputum sample at that time point.

UGT1A1, sequence (P22309 26-533): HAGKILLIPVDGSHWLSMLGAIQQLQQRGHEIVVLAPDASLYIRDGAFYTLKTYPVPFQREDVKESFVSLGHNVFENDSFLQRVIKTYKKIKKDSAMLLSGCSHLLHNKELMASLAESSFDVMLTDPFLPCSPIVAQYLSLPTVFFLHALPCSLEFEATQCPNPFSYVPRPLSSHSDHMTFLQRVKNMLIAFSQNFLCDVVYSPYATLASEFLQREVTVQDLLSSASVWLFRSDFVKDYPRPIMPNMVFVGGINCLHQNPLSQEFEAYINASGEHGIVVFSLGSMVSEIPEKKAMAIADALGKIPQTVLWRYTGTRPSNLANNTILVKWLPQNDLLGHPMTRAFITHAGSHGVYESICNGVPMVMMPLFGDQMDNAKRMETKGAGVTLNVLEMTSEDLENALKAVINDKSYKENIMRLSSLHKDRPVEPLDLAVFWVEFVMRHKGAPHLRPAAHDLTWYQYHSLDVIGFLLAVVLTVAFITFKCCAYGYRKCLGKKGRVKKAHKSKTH
ΔF508-CFTR, sequence (P13569 other isoform, or with tags, fused parts or gaps del F508-F508): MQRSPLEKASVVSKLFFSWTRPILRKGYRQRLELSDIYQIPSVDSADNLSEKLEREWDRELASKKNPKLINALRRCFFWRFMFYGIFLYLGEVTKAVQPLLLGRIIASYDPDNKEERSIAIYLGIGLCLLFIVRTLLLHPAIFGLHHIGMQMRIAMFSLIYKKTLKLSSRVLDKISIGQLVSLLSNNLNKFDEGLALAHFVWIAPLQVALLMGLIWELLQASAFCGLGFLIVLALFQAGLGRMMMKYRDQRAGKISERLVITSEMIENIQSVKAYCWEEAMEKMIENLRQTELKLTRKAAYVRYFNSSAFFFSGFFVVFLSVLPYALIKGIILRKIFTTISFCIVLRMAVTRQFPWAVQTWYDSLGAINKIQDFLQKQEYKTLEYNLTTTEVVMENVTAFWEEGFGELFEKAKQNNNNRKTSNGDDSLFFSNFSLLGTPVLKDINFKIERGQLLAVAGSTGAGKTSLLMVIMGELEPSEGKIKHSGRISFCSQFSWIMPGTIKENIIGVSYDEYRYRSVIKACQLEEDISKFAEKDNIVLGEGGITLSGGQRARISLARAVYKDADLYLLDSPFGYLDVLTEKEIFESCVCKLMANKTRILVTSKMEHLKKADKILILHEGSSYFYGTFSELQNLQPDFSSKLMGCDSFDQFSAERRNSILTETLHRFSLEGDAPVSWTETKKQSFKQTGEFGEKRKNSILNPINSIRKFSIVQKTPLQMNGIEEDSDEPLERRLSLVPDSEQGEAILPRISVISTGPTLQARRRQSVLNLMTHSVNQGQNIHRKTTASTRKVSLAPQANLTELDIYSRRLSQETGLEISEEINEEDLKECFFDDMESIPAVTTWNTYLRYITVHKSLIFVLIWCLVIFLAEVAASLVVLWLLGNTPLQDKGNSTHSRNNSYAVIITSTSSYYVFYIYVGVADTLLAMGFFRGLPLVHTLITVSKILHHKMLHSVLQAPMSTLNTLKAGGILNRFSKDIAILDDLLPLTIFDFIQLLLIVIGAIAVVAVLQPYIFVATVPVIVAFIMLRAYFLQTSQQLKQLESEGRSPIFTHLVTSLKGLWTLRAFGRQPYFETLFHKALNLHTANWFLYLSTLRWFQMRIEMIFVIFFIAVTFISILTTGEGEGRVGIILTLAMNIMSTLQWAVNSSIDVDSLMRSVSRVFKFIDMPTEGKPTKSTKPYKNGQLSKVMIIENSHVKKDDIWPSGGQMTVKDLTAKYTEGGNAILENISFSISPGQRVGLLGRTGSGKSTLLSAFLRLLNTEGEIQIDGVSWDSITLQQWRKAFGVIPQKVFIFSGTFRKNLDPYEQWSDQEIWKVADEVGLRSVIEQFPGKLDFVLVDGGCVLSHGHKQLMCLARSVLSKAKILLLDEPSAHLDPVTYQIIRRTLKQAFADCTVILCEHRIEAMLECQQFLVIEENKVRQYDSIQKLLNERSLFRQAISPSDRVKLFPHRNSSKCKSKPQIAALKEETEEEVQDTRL

In the case of `COc1nc(C(=O)NC[C@](C)(O)C(F)(F)F)c(N)cc1C(F)(F)F` (single isomer, unassigned) [Example 5], the half-life ([1]; in vivo) is reported as 10 to 16 h, the “trough concentration (Cmin,ss) corresponding to AUC0-24 h,ss of 91,700 ng*h/ml” value ([1]; regression of Cmin,ss against AUC0-24 h,ss) is reported as 3000 ng/mL and the EC50 [2] is reported as 50 nM. The “inhibition of OAT1/3” value [3] was “Weak in vitro inhibition”, the “inhibition of UGT1A1” value [4] was “Weak in vitro inhibition” and the “patients colonized, n (%)” value ([5]; Baseline) was 2 (4.4) n (%). The “patients colonized, n (%)” value ([5]; D14) was 4 (9.3) n (%), the “patients colonized, n (%)” value ([5]; D29) was 2 (4.8) n (%) and the “patients colonized, n (%)” value ([5]; EOS) was 1 (2.4) n (%).
